Results reported in patent US9133122B2, “Amide compounds, compositions and uses thereof” (EVOTEC AG, priority 2008, dated 2015).

Tests used:
hP2X2/3H = molecular target: T1, hP2X2/3H (Homo sapiens, UniProt P56373+Q9UBL9); assay: Calcium uptake assay (Ca influx), P2X antagonist assay, P2X2/3 heteromer; type: cell-based; conditions: inhibition of agonist-induced calcium influx
T1 construct: expressed in transfected cells
T1 sequence (P56373 1-397): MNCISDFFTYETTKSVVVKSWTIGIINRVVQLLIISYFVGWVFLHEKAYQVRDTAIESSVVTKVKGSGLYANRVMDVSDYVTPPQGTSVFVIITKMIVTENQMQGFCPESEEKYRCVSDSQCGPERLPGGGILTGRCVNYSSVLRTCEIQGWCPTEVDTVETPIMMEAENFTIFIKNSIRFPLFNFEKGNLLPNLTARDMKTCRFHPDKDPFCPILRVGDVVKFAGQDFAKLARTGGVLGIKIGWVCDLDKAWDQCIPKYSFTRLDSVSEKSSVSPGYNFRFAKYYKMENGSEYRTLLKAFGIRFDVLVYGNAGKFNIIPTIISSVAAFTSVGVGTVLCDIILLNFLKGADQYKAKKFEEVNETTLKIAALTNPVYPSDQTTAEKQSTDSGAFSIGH
T1 sequence (Q9UBL9 1-471): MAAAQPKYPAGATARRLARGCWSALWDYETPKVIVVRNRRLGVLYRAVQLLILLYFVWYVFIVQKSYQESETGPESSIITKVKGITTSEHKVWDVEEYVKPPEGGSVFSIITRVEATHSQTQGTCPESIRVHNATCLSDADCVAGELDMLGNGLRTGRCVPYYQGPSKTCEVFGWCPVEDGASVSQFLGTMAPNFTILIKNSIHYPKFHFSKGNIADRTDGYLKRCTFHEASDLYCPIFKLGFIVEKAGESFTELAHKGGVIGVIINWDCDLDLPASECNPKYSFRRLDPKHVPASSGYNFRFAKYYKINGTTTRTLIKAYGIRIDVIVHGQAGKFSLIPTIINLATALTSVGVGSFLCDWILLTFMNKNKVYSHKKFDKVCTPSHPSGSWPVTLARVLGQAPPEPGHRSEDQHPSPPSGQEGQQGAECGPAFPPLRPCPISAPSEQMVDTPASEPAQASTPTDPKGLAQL
Method in brief: (§1)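 Receptors expressed in HEK293 or 1321N1 cells, transiently or stably; heteromer from P2X3 transfected into P2X2-stable line. Fluo-4-type dye in HBSS; compound pre-treatment 1–30 min, then agonist (αβMeATP, ATP or analog) at EC50-90. FLIPR peak minus baseline fluorescence; IC50 by 4-parameter fit, 1 pM–10 μM.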

hP2X3 = molecular target: T2, hP2X3 (Homo sapiens, UniProt P56373); assay: Calcium uptake assay (Ca influx), P2X antagonist assay, P2X3 homomer; type: cell-based; conditions: inhibition of agonist-induced calcium influx
T2 construct: expressed in transfected cells
T2 sequence (P56373 1-397): T1 sequence (P56373 1-397)
Method in brief: as §1

| Compound | IC50 (hP2X2/3H) | IC50 (hP2X3) |
| --- | --- | --- |
| Cc1ccc(-c2cc(C(=O)N[C@H](C)c3cnc(C)nc3)cc(-c3cnccc3C#N)c2)nc1 [Compound 55, 3-(4-Cyano-pyridin-3-yl)-5-(5-methyl-pyridin-2-yl)-N-[(R)-1-(2-methyl-pyrimidin-5-yl)-ethyl]-benzamide] | 27.5 nM | 12.7 nM |
| Cc1ccc(-c2cc(C(=O)N[C@H](C)c3cnc(C)nc3)cc(N3CCCC3=O)c2)nc1 [Compound 58, (R)-3-(5-Methylpyridin-2-yl)-N-(1-(2-methylpyrimidin-5-yl)ethyl)-5-(2-oxopyrrolidin-1-yl)benzamide] | 194 nM | 35.3 nM |
| Cc1ccc(-c2cc(C(=O)N[C@@H](C)CO)cc(N3CCCC3=O)c2)cc1 [Compound 60, 4′-Methyl-5-(2-oxo-pyrrolidin-1-yl)-biphenyl-3-carboxylic acid ((S)-2-hydroxy-1-methyl-ethyl)-amide] | 8680 nM | 207 nM |
| Cc1ccc(-c2cc(C(=O)NCc3ccc(C)nc3)cc(N3CCC[C@@H]3CO)c2)nc1 [Compound 63, 3-((R)-2-Hydroxymethyl-pyrrolidin-1-yl)-5-(5-methyl-pyridin-2-yl)-N-(6-methyl-pyridin-3-ylmethyl)-benzamide] | 25.7 nM | 11.8 nM |
| Cc1ccc(-c2cc(C(=O)NCc3cnc(C)nc3)cc(N3CCOCC3=O)c2)c(C#N)c1 [Compound 64, 2′-Cyano-4′-methyl-5-(3-oxo-morpholin-4-yl)-biphenyl-3-carboxylic acid (2-methyl-pyrimidin-5-ylmethyl)-amide] | 254 nM | 33.2 nM |
| Cc1ccc(-c2cc(C(=O)NCc3ccc(C)nc3)cc(N3CCN(C)CC3=O)c2)cc1 [Compound 68, 4′-Methyl-5-(4-methyl-2-oxo-piperazin-1-yl)-biphenyl-3-carboxylic acid (6-methyl-pyridin-3-ylmethyl)-amide] | 1390 nM | 371 nM |
| Cc1ccc(-c2cc(C(=O)N[C@H](C)CN3CCOCC3)cc(-c3cc(C)ccc3C#N)c2)nc1 [Compound 73, 2′-Cyano-5′-methyl-5-(5-methyl-pyridin-2-yl)-biphenyl-3-carboxylic acid ((R)-1-methyl-2-morpholin-4-yl-ethyl)-amide] | 340 nM | 104 nM |
| Cc1ccc(-c2cc(C(=O)N[C@@H](C)CO)cc(-c3cc(C(F)(F)F)ccc3C#N)c2)nc1 [Compound 79, 2′-Cyano-5-(5-methyl-pyridin-2-yl)-5′-trifluoromethyl-biphenyl-3-carboxylic acid ((S)-2-hydroxy-1-methyl-ethyl)-amide] | 444 nM | 71.8 nM |
| Cc1ccc(-c2cc(C(=O)N[C@H](C)CN3CCOCC3)cc(-c3cc(C(F)(F)F)ccc3C#N)c2)nc1 [Compound 80, (R)-2′-cyano-5-(5-methylpyridin-2-yl)-N-(1-morpholinopropan-2-yl)-5′-(trifluoromethyl)biphenyl-3-carboxamide] | 218 nM | 351 nM |
| Cc1ccc(-c2cc(C(=O)N[C@@H](C)CO)cc(-c3cnccc3C#N)c2)nc1 [Compound 84, 3-(4-Cyano-pyridin-3-yl)-N-((S)-2-hydroxy-1-methyl-ethyl)-5-(5-methyl-pyridin-2-yl)-benzamide] | 850 nM | 10.3 nM |
| Cc1ccc(-c2cc(C(=O)N[C@@H](C)CO)cc(-c3cccc(F)c3F)c2)c(C#N)c1 [Compound 85, 2-Cyano-2″,3″-difluoro-4-methyl-[1,1′;3′,1″]terphenyl-5′-carboxylic acid ((S)-2-hydroxy-1-methyl-ethyl)-amide] | 1360 nM | 31.9 nM |
| Cc1ccc(-c2cc(C(=O)N[C@@H](C)CO)cc(-c3cnccc3C#N)c2)c(C#N)c1 [Compound 86, 2′-Cyano-5-(4-cyano-pyridin-3-yl)-4′-methyl-biphenyl-3-carboxylic acid ((S)-2-hydroxy-1-methyl-ethyl)-amide] | 28.1 nM | 2.2 nM |

Continued by falling IC50 (hP2X2/3H), values first:

| IC50 (hP2X2/3H) | IC50 (hP2X3) | Compound |
| --- | --- | --- |
| 7170 nM | 221 nM | COCC(CO)NC(=O)c1cc(-c2ccc(C)cn2)cc(-c2cccc(F)c2F)c1 (stereo not shown) [Compound 78, 2′,3′-Difluoro-5-(5-methyl-pyridin-2-yl)-biphenyl-3-carboxylic acid (2-hydroxy-1-methoxymethyl-ethyl)-amide] |
| 5580 nM | 138 nM | COCC(CO)NC(=O)c1cc(-c2ccc(C)cn2)cc(-c2cc(C)ccc2C#N)c1 (stereo not shown) [Compound 74, 2′-Cyano-5′-methyl-5-(5-methyl-pyridin-2-yl)-biphenyl-3-carboxylic acid (2-hydroxy-1-methoxymethyl-ethyl)-amide] |
| 2350 nM | 268 nM | Cc1ccc(-c2cc(C(=O)NCc3ccc(C)nc3)cc(N3CCNCC3=O)c2)cc1 [Compound 61, 4′-Methyl-5-(2-oxo-piperazin-1-yl)-biphenyl-3-carboxylic acid (6-methyl-pyridin-3-ylmethyl)-amide] |
| 1220 nM | 48.7 nM | Cc1ccc(-c2cc(C(=O)N[C@@H](C)CO)cc(-c3ncccc3C(F)(F)F)c2)nc1 [Compound 81, N-((S)-2-Hydroxy-1-methyl-ethyl)-3-(5-methyl-pyridin-2-yl)-5-(3-trifluoromethyl-pyridin-2-yl)-benzamide] |
| 1060 nM | 117 nM | Cc1ccc(-c2cc(C(=O)NCc3ccc(C)nc3)cc(N3CCNCC3=O)c2)c(C#N)c1 [Compound 65, 2′-Cyano-4′-methyl-5-(2-oxo-piperazin-1-yl)-biphenyl-3-carboxylic acid (6-methyl-pyridin-3-ylmethyl)-amide] |
| 729 nM | 85.8 nM | Cc1ccc(-c2cc(C(=O)NCc3cnc(C)nc3)cc(N3CCNCC3=O)c2)c(C#N)c1 [Compound 66, 2′-Cyano-4′-methyl-5-(2-oxo-piperazin-1-yl)-biphenyl-3-carboxylic acid (2-methyl-pyrimidin-5-ylmethyl)-amide] |
| 667 nM | 102 nM | Cc1ccc(-c2cc(C(=O)NCc3ccc(C)nc3)cc(N3CCN(C)CC3=O)c2)c(C#N)c1 [Compound 67, 2′-Cyano-4′-methyl-5-(4-methyl-2-oxo-piperazin-1-yl)-biphenyl-3-carboxylic acid (6-methyl-pyridin-3-ylmethyl)-amide] |
| 527 nM | 89.2 nM | Cc1ccc(-c2cc(C(=O)N[C@H](C)c3cnc(C)nc3)cc(N3CCOCC3=O)c2)nc1 [Compound 57, 3-(5-Methyl-pyridin-2-yl)-N-[(R)-1-(2-methyl-pyrimidin-5-yl)-ethyl]-5-(3-oxo-morpholin-4-yl)-benzamide] |
| 418 nM | 95.9 nM | Cc1ccc(-c2cc(C(=O)N[C@H](C)c3cnc(C)nc3)cc(N3CCCCC3=O)c2)nc1 [Compound 56, 3-(5-Methyl-pyridin-2-yl)-N-[(R)-1-(2-methyl-pyrimidin-5-yl)-ethyl]-5-(2-oxo-piperidin-1-yl)-benzamide] |
| 373 nM | 99.5 nM | Cc1ccc(-c2cc(C(=O)N[C@H](C)CN3CCOCC3)cc(-c3cccc(F)c3F)c2)nc1 [Compound 77, (R)-2′,3′-difluoro-5-(5-methylpyridin-2-yl)-N-(1-morpholinopropan-2-yl)biphenyl-3-carboxamide] |
| 240 nM | 43.6 nM | Cc1ccc(-c2cc(C(=O)N[C@@H](C)CO)cc(-c3cc(C)ccc3C#N)c2)nc1 [Compound 71, 2′-Cyano-5′-methyl-5-(5-methyl-pyridin-2-yl)-biphenyl-3-carboxylic acid ((S)-2-hydroxy-1-methyl-ethyl)-amide] |
| 127 nM | 65.8 nM | Cc1ccc(-c2cc(C(=O)NCc3ccc(C)nc3)cc(N3CCC[C@H]3CO)c2)cc1 [Compound 59, (S)-5-(2-(Hydroxymethyl)pyrrolidin-1-yl)-4′-methyl-N-((6-methylpyridin-3-yl)methyl)biphenyl-3-carboxamide] |
| 47.4 nM | 45.7 nM | Cc1ccc(-c2cc(C(=O)NCc3ccc(C)nc3)cc(N3CCC[C@@H]3CO)c2)cc1 [Compound 62, 5-((R)-2-Hydroxymethyl-pyrrolidin-1-yl)-4′-methyl-biphenyl-3-carboxylic acid (6-methyl-pyridin-3-ylmethyl)-amide] |
| 26 nM | 72.1 nM | Cc1ccc(-c2cc(C(=O)N[C@H](C)CN3CCOCC3)cc(-c3c(F)cccc3C(F)(F)F)c2)nc1 [Compound 83, 2′-Fluoro-5-(5-methyl-pyridin-2-yl)-6′-trifluoromethyl-biphenyl-3-carboxylic acid ((R)-1-methyl-2-morpholin-4-yl-ethyl)-amide] |
